Experimental data as given in US5698522A, “6-position modified decapeptide LHRH antagonists” (Abbott Laboratories, priority 1995, dated 1997).
Where a SMILES comes first, the peptide text is derived from it. Side-chain parts run from the residue outwards. [ ]: non-standard residue; d: D form. The star is where a group is joined. ξ: configuration not given here. Shikimoyl = O=C(C1=C[C@@H](O)[C@@H](O)[C@H](O)C1)*; Quinoline4carbonyl = O=C(c1ccnc2ccccc12)*; ξTetrahydrofuran2carbonyl = O=C(C1CCCO1)*; dPhe(4-Cl) = N[C@H](Cc1ccc(Cl)cc1)C(=O)O; d2Nal = N[C@H](Cc1ccc2ccccc2c1)C(=O)O; Lys(iPr) = CC(C)NCCCC[C@H](N)C(=O)O; NMeY = CN[C@@H](Cc1ccc(O)cc1)C(=O)O; d3Pal = N[C@H](Cc1cccnc1)C(=O)O; Nicotinoyl = O=C(c1cccnc1)*; dOrn = NCCC[C@@H](N)C(=O)O; Propionyl = CCC(=O)*; azaGly = NNC(=O)O; Sar = CNCC(=O)O

Molecular target: T1, LHRH receptor (Rattus norvegicus, UniProt P30969)
T1 construct: endogenous in cells
T1 sequence (P30969 1-327): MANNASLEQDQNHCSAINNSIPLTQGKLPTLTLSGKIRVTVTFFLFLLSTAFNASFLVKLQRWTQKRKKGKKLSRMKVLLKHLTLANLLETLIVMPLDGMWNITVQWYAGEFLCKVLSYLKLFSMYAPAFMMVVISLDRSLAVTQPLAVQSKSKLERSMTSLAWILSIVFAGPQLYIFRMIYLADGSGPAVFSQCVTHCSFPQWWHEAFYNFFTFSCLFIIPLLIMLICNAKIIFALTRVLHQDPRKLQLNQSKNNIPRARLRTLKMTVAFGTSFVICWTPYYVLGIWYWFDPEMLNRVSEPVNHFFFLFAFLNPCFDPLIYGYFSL
Test: in vitro LHRH antagonist potency (pA2) against the agonist leuprolide
Assay type: cell-based
Conditions: negative logarithm of the antagonist concentration which shifts the response curve produced by the agonist leuprolide to two-fold higher concentration
Description: Representative compounds of the present invention were evaluated in in vitro tests for receptor binding (pKI) and for LHRH antagonist potency (pA2). The tests employed the methods detailed in F. Haviv, et al., J. Med. Chem., 32: 2340-2344 (1989). The receptor binding affinities (pKI) are the negative logarithms of the equilibtirum dissociation constants (pA2) are the negative logarithms of the concentration of antagonist which shift the response curve roduced by the agonist leuprolide to two-fold higher concentration. (Leuprolide is the LHRH agonist having the structure 5-oxo-Pro^1 -His^2 -Trp^3 -Ser^4 -Tyr^5 -D-Leu^6 -Leu^7 -Arg^8 -Pro^9 -NHEt and is disclosed and claimed in U.S. Pat. No. 4,005,063.) Typically pA2 values of 9.5 or greater are indicative of good LHRH antagonist potency.

SMILES | Kb [nM]
CC(=O)N[C@H](Cc1ccc2ccccc2c1)C(=O)N[C@H](Cc1ccc(Cl)cc1)C(=O)N[C@H](Cc1cccnc1)C(=O)N[C@@H](CO)C(=O)N(C)[C@@H](Cc1ccc(O)cc1)C(=O)N[C@H](CCCCNC(=O)CN(C)C(=O)c1cccnc1)C(=O)N[C@@H](CC(C)C)C(=O)N[C@@H](CCCCNC(C)C)C(=O)N1CCC[C@H]1C(=O)N[C@H](C)C(N)=O [Example 4d, NAc-D2Nal^1 -D4ClPhe^2 -D3Pal^3 -Ser^4 -NMeTyr^5 -DLys(N-epsilon-Sar-Nicotinyl)^6 -Leu^7 -Lys(N-epsilon-Isopropyl)^8 -Pro^9 -DAla^10 NH2] (Ac-[d2Nal][dPhe(4-Cl)][d3Pal]S[NMeY][dK]([Sar-Nicotinoyl])L[Lys(iPr)]P[dA]-NH2) | 0.0138
CC(=O)N[C@H](Cc1ccc2ccccc2c1)C(=O)N[C@H](Cc1ccc(Cl)cc1)C(=O)N[C@H](Cc1cccnc1)C(=O)N[C@@H](CO)C(=O)N(C)[C@@H](Cc1ccc(O)cc1)C(=O)N[C@H](CCCCNC(=O)[C@H](NC(=O)C1=C[C@@H](O)[C@@H](O)[C@H](O)C1)[C@H](C)O)C(=O)N[C@@H](CC(C)C)C(=O)N[C@@H](CCCNC(=N)N)C(=O)N1CCC[C@H]1C(=O)N[C@H](C)C(N)=O [Example 48c, NAc-D2Nal^1 -D4ClPhe^2 -D3Pal^3 -Ser^4 -NMeTyr^5 -DLys(N-epsilon-D-Thr-Shikimyl)^6 -Leu^7 -Arg^8 -Pro^9 -DAla^10 NH2] (Ac-[d2Nal][dPhe(4-Cl)][d3Pal]S[NMeY][dK]([dT-Shikimoyl])LRP[dA]-NH2) | 0.0288
CC(=O)N[C@H](Cc1ccc2ccccc2c1)C(=O)N[C@H](Cc1ccc(Cl)cc1)C(=O)N[C@H](Cc1cccnc1)C(=O)N[C@@H](CO)C(=O)N(C)[C@@H](Cc1ccc(O)cc1)C(=O)N[C@H](CCCCNC(=O)[C@@H](Cc1cccnc1)NC(=O)C1=C[C@@H](O)[C@@H](O)[C@H](O)C1)C(=O)N[C@@H](CC(C)C)C(=O)N[C@@H](CCCNC(=N)N)C(=O)N1CCC[C@H]1C(=O)N[C@H](C)C(N)=O [Example 38f, NAc-D2Nal^1 -D4ClPhe^2 -D3Pal^3 -Ser^4 -NMeTyr^5 -DLys(N-epsilon-D3Pal-Shikimyl)^6 -Leu^7 -Arg^8 -Pro^9 -DAla^10 NH2] (Ac-[d2Nal][dPhe(4-Cl)][d3Pal]S[NMeY][dK]([d3Pal-Shikimoyl])LRP[dA]-NH2) | 0.0214
CC(=O)N[C@H](Cc1ccc2ccccc2c1)C(=O)N[C@H](Cc1ccc(Cl)cc1)C(=O)N[C@H](Cc1cccnc1)C(=O)N[C@@H](CO)C(=O)N(C)[C@@H](Cc1ccc(O)cc1)C(=O)N[C@H](CCCCNC(=O)CNC(=O)c1ccnc2ccccc12)C(=O)N[C@@H](CC(C)C)C(=O)N[C@@H](CCCNC(=N)N)C(=O)N1CCC[C@H]1C(=O)N[C@H](C)C(N)=O [Example 51d, NAc-D2Nal^1 -D4ClPhe^2 -D3Pal^3 -Ser^4 -NMeTyr^6 -DLys(N-epsilon-Gly-4-Quinolinyl)^6 -Leu^7 -Arg^8 -Pro^9 -DAla^10 NH2] (Ac-[d2Nal][dPhe(4-Cl)][d3Pal]S[NMeY][dK]([Gly-Quinoline4carbonyl])LRP[dA]-NH2) | 0.0141
CC(=O)N[C@H](Cc1ccc2ccccc2c1)C(=O)N[C@H](Cc1ccc(Cl)cc1)C(=O)N[C@H](Cc1cccnc1)C(=O)N[C@@H](CO)C(=O)N(C)[C@@H](Cc1ccc(O)cc1)C(=O)N[C@H](CCCCNC(=O)[C@@H](CO)NC(=O)C1=C[C@@H](O)[C@@H](O)[C@H](O)C1)C(=O)N[C@@H](CC(C)C)C(=O)N[C@@H](CCCNC(=N)N)C(=O)N1CCC[C@H]1C(=O)N[C@H](C)C(N)=O [Example 11, NAc-D2Nal^1 -D4ClPhe^2 -D3Pal^3 -Ser^4 -NMeTyr^5 -DLys(N-epsilon-DSer-Shikimyl)^6 -Leu^7 -Arg^8 -Pro^9 -DAla^10 NH2] (Ac-[d2Nal][dPhe(4-Cl)][d3Pal]S[NMeY][dK]([dS-Shikimoyl])LRP[dA]-NH2) | 0.017
CC(=O)N[C@H](Cc1ccc2ccccc2c1)C(=O)N[C@H](Cc1ccc(Cl)cc1)C(=O)N[C@H](Cc1cccnc1)C(=O)N[C@@H](CO)C(=O)N(C)[C@@H](Cc1ccc(O)cc1)C(=O)N[C@H](CCCCNC(=O)CNC(=O)c1cccnc1)C(=O)N[C@@H](CC(C)C)C(=O)N[C@@H](CCCNC(=N)N)C(=O)N1CCC[C@H]1C(=O)N[C@H](C)C(N)=O [Example 10, NAc-D2Nal^1 -D4ClPhe^2 -D3Pal^3 -Ser^4 -NMeTyr^5 -DLys(N-epsilon-Gly-Nicotinyl)^6 -Leu^7 -Arg^8 -Pro^9 -DAla^10 NH2] (Ac-[d2Nal][dPhe(4-Cl)][d3Pal]S[NMeY][dK]([Gly-Nicotinoyl])LRP[dA]-NH2) | 0.00501
CC(=O)N[C@H](Cc1ccc2ccccc2c1)C(=O)N[C@H](Cc1ccc(Cl)cc1)C(=O)N[C@H](Cc1cccnc1)C(=O)N[C@@H](CO)C(=O)N(C)[C@@H](Cc1ccc(O)cc1)C(=O)N[C@H](CCCCNC(=O)[C@@H](Cc1c[nH]cn1)NC(=O)C1=C[C@@H](O)[C@@H](O)[C@H](O)C1)C(=O)N[C@@H](CC(C)C)C(=O)N[C@@H](CCCNC(=N)N)C(=O)N1CCC[C@H]1C(=O)N[C@H](C)C(N)=O [Example 38e, NAc-D2Nal^1 -D4ClPhe^2 -D3Pal^3 -Ser^4 -NMeTyr^5 -DLys(N-epsilon-DHis-Shikimyl)^6 -Leu^7 -Arg^8 -Pro^9 -DAla^10 NH2] (Ac-[d2Nal][dPhe(4-Cl)][d3Pal]S[NMeY][dK]([dH-Shikimoyl])LRP[dA]-NH2) | 0.0437
CCC(=O)NNC(=O)NCCCC[C@@H](NC(=O)[C@H](Cc1ccc(O)cc1)N(C)C(=O)[C@H](CO)NC(=O)[C@@H](Cc1cccnc1)NC(=O)[C@@H](Cc1ccc(Cl)cc1)NC(=O)[C@@H](Cc1ccc2ccccc2c1)NC(C)=O)C(=O)N[C@@H](CC(C)C)C(=O)N[C@@H](CCCCNC(C)C)C(=O)N1CCC[C@H]1C(=O)N[C@H](C)C(N)=O [Example 58, NAc-D2Nal^1 -D4ClPhe^2 -D3Pal^3 -Ser^4 -NMeTyr^5 -DLys(N-epsilon-Azagly-Propionyl)^6 -Leu^7 -Lys(N-epsilon-Isopropyl)^8 -Pro^9 -DAla^10 NH2] (Ac-[d2Nal][dPhe(4-Cl)][d3Pal]S[NMeY][dK]([azaGly-Propionyl])L[Lys(iPr)]P[dA]-NH2) | 0.0257
CC(=O)N[C@H](Cc1ccc2ccccc2c1)C(=O)N[C@H](Cc1ccc(Cl)cc1)C(=O)N[C@H](Cc1cccnc1)C(=O)N[C@@H](CO)C(=O)N(C)[C@@H](Cc1ccc(O)cc1)C(=O)N[C@H](CCCCNC(=O)NNC(=O)C1CCCO1)C(=O)N[C@@H](CC(C)C)C(=O)N[C@@H](CCCCNC(C)C)C(=O)N1CCC[C@H]1C(=O)N[C@H](C)C(N)=O (stereo partly drawn) [Example 5a, NAc-D2Nal^1 -D4ClPhe^2 -D3Pal^3 -Ser^4 -NMeTyr^5 -DLys(N-epsilon-Azagly-2-Tetrahydrofuroyl)^6 -Leu^7 -Lys(N-epsilon-Isopropyl)^8 -Pro^9 -DAla^10 NH2] (Ac-[d2Nal][dPhe(4-Cl)][d3Pal]S[NMeY][dK]([azaGly-ξTetrahydrofuran2carbonyl])L[Lys(iPr)]P[dA]-NH2) | 0.0191
CC(=O)N[C@H](Cc1ccc2ccccc2c1)C(=O)N[C@H](Cc1ccc(Cl)cc1)C(=O)N[C@H](Cc1cccnc1)C(=O)N[C@@H](CO)C(=O)N(C)[C@@H](Cc1ccc(O)cc1)C(=O)N[C@H](CCCCNC(=O)NNC(=O)c1cccnc1)C(=O)N[C@@H](CC(C)C)C(=O)N[C@@H](CCCCNC(C)C)C(=O)N1CCC[C@H]1C(=O)N(C)CC(N)=O [Example 60, NAc-D2Nal^1 -D4ClPhe^2 -D3Pal^3 -Ser^4 -NMeTyr^5 -DLys(N-epsilon-Azagly-Nicotinyl)^6 -Leu^7 -Lys(N-epsilon-Isopropyl)^8 -Pro^9 -Sar^10 NH2] (Ac-[d2Nal][dPhe(4-Cl)][d3Pal]S[NMeY][dK]([azaGly-Nicotinoyl])L[Lys(iPr)]P[Sar]-NH2) | 0.0282
CC(=O)N[C@H](Cc1ccc2ccccc2c1)C(=O)N[C@H](Cc1ccc(Cl)cc1)C(=O)N[C@H](Cc1cccnc1)C(=O)N[C@@H](CO)C(=O)N(C)[C@@H](Cc1ccc(O)cc1)C(=O)N[C@H](CCCCNC(=O)[C@@H](Cc1c[nH]cn1)NC(=O)C1=C[C@@H](O)[C@@H](O)[C@H](O)C1)C(=O)N[C@@H](CC(C)C)C(=O)N[C@@H](CCCNC(=N)N)C(=O)N1CCC[C@H]1C(=O)N[C@H](C)C(N)=O [Example 48h, NAc-D2Nal^1 -D4ClPhe^2 -D3Pal^3 -Ser^4 -NMeTyr^5 -DLys(N-epsilon-D-His-Shikimyl)^6 -Leu^7 -Arg^8 -Pro^9 -DAla^10 NH2] (Ac-[d2Nal][dPhe(4-Cl)][d3Pal]S[NMeY][dK]([dH-Shikimoyl])LRP[dA]-NH2) | 0.038
CC(=O)N[C@H](Cc1ccc2ccccc2c1)C(=O)N[C@H](Cc1ccc(Cl)cc1)C(=O)N[C@H](Cc1cccnc1)C(=O)N[C@@H](CO)C(=O)N(C)[C@@H](Cc1ccc(O)cc1)C(=O)N[C@H](CCCNC(=O)NNC(=O)c1cccnc1)C(=O)N[C@@H](CC(C)C)C(=O)N[C@@H](CCCCNC(C)C)C(=O)N1CCC[C@H]1C(=O)N[C@H](C)C(N)=O [Example 53a, NAc-D2Nal^1 -D4ClPhe^2 -D3Pal^3 -Ser^4 -NMeTyr^5 -DOrn(N-epsilon-Azagly-Nicotinyl)^6 -Leu^7 -Lys(N-epsilon-Isopropyl)^8 -Pro^9 -DAla^10 NH2] (Ac-[d2Nal][dPhe(4-Cl)][d3Pal]S[NMeY][dOrn]([azaGly-Nicotinoyl])L[Lys(iPr)]P[dA]-NH2) | 0.0331
